Assay results reported in PMC10659432 (bioRxiv, 2023).

Columns and labels:
5-HT1eR [1] = biological target: T1, 5-HT1eR (Homo sapiens, UniProt P28566); test: BRET Gi1 activation assay in transfected HEK293T cells, agonism; assay type: cell-based
Target sequence in this assay (P63096 2-354): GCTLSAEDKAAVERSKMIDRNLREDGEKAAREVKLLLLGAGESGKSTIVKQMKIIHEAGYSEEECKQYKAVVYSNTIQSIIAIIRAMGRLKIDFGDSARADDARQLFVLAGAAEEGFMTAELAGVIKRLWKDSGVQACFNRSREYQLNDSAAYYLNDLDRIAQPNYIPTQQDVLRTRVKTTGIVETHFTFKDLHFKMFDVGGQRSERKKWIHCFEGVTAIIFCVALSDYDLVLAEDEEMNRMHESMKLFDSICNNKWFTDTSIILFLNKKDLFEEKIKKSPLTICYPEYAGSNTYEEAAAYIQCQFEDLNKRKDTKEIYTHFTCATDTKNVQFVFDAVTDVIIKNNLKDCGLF
Target sequence in this assay (P62873 2-340, further chain): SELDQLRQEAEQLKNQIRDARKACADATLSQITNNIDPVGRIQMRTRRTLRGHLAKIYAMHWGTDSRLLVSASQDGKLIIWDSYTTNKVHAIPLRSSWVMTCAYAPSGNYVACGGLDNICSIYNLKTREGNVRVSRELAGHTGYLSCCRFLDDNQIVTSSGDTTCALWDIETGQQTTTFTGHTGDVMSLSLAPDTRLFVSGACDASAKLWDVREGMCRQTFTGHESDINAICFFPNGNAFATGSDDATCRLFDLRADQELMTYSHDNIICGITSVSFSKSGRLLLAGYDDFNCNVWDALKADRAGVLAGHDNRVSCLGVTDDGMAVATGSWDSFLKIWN
Target sequence in this assay (P59768 2-68, further chain): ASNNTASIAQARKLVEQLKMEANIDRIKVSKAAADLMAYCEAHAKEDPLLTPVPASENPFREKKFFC
Target sequence in this assay (P28566 whole entry): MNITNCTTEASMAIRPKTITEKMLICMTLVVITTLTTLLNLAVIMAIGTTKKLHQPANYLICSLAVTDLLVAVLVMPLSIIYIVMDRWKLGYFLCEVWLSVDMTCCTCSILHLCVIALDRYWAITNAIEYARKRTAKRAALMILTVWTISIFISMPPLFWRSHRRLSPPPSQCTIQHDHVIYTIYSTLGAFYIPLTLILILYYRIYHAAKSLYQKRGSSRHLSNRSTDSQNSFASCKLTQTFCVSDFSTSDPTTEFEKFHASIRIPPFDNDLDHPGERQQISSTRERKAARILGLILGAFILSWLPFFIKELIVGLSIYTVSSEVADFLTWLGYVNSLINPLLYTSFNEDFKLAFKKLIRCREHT

5-HT1FR [2] = biological target: T2, 5-HT1FR (Homo sapiens, UniProt P30939); test: as above; assay type: cell-based
5-HT1eR [3] = biological target: T1, 5-HT1eR; test: cryoEM structure at […] Å
Target sequence in this assay (P28566 whole entry): as above

5-HT1FR [4] = biological target: T2, 5-HT1FR; test: G protein BRET assay in transfected HEK293T cells, agonism; assay type: cell-based
5-HT1eR [5] = biological target: T1, 5-HT1eR; test: cryoEM structure at […] Å; assay type: cell-based
Target sequence in this assay (P28566 whole entry): as above

5-HT1FR [6] = biological target: T2, 5-HT1FR; test: G protein BRET assay in transfected HEK293T cells, full agonism; assay type: cell-based

T2 sequence (P62873 2-340): as the sequence (P62873 2-340, further chain) above
T2 sequence (P30939 whole entry): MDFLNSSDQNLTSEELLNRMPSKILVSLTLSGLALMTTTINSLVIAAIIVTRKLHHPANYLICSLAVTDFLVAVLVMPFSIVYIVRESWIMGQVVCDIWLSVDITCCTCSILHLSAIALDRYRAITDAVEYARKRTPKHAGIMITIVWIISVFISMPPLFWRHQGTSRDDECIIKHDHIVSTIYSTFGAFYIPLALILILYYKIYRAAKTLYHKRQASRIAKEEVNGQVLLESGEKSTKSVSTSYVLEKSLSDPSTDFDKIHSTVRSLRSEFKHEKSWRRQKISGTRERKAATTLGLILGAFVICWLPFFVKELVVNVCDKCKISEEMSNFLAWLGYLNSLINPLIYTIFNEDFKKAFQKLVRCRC
T2 sequence (P63096 2-354, further chain): as the sequence (P63096 2-354) above
T2 sequence (P59768 2-68, further chain): as the sequence (P59768 2-68, further chain) above

Row | SMILES | EC50 (5-HT1eR [1]) | EC50 (5-HT1FR [2]) | other results
1 | CC[C@@H](CO)NC(=O)[C@@H]1C=C2c3cccc4[nH]cc(c34)C[C@H]2N(C)C1 [methylergonovine] | 17 nM | 5.2 nM | –
2 | CN1CCN2c3ccccc3Cc3ccccc3C2C1 (stereo not shown) [mianserin] | – | 47.5 nM | EC50 (5-HT1eR [3]): 123 nM
3 | CN1CCN2c3ncccc3Cc3ccccc3C2C1 (stereo not shown) [mirtazapine] | – | – | EC50 (5-HT1FR [4]): 236 nM
4 | Cc1cc(C(C)(C)C)c(O)c(C)c1CC1=NCCN1 [oxymetazoline] | – | 11.3 nM | –
5 | CN1CCC(=C2c3ccccc3Sc3ccccc32)CC1 [pimethixene] | 353 nM | 456 nM | –
6 | CN1CCC2=C(C1)c1ccccc1Cc1ccccc12 [setiptiline] | – | – | EC50 (5-HT1eR [5]): 171 nM; EC50 (5-HT1FR [6]): 64.6 nM
